Reference: PubChem BioAssay (NCI)
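How tested: cells in 96-well plates exposed to compound for 48 hours at five concentrations. The concentration for 50% growth inhibition is given as GI50. TGI denotes the concentration required for complete inhibition of growth.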 Where a SMILES comes first, the peptide text is derived from it. Bridges are numbered along the chain shown (N, C = ends). [ ]: non-standard residue; d: D form. The star is where a group is joined. ξ: configuration not given here. X26 = O=C(/C=C/C=C/C=C/C=C/C=C/C(=O)*)NC1=C(O)CCC1=O; NMeA = CN[C@@H](C)C(=O)O; ξF = NC(Cc1ccccc1)C(=O)O; ξA = CC(N)C(=O)O

Legend:
Assay in all cases: growth of human tumour cells (NCI), 48 h
HCC-2998 colon = tested on: HCC-2998 colon
KM12 colon = tested on: KM12 colon
MDA-MB-435 = tested on: MDA-MB-435
RXF 393 renal = tested on: RXF 393 renal
SK-OV-3 ovarian = tested on: SK-OV-3 ovarian
U251 CNS = tested on: U251 CNS
UACC-62 melanoma = tested on: UACC-62 melanoma
HOP-92 NSCLC = tested on: HOP-92 NSCLC
SF-295 CNS = tested on: SF-295 CNS

## CSc1c(C#N)c(N)n(-c2ccc(C)cc2)c(=O)c1C#N
HCC-2998 colon
  TGI: > 100 µM
KM12 colon
  TGI: > 100 µM
MDA-MB-435
  TGI: > 100 µM
RXF 393 renal
  TGI: > 100 µM
SK-OV-3 ovarian
  TGI: > 100 µM
U251 CNS
  TGI: > 100 µM
UACC-62 melanoma
  TGI: > 100 µM

## COc1cc2nc(-c3cccs3)oc(=O)c2cc1OC
HOP-92 NSCLC
  TGI: > 100 µM
KM12 colon
  TGI: > 100 µM
MDA-MB-435
  TGI: > 100 µM
RXF 393 renal
  TGI: > 100 µM
SF-295 CNS
  TGI: > 100 µM
SK-OV-3 ovarian
  TGI: > 100 µM
U251 CNS
  TGI: > 100 µM
UACC-62 melanoma
  TGI: > 100 µM

## C(/C=C(\Nc1ccccc1)C12CC3CC(CC(C3)C1)C2)=Nc1ccccc1
HCC-2998 colon
  TGI: 33.2 µM
HOP-92 NSCLC
  TGI: 60.7 µM
KM12 colon
  TGI: 35.2 µM
MDA-MB-435
  TGI: 34.3 µM
RXF 393 renal
  TGI: 35.4 µM
SF-295 CNS
  TGI: 36.5 µM
SK-OV-3 ovarian
  TGI: 46.5 µM
U251 CNS
  TGI: 31.7 µM
UACC-62 melanoma
  TGI: 25.7 µM

## O=c1[nH]cnc2c1ncn2[C@@H]1C[C@@H]1CO
HCC-2998 colon
  TGI: > 100 µM
HOP-92 NSCLC
  TGI: > 100 µM
KM12 colon
  TGI: > 100 µM
MDA-MB-435
  TGI: > 100 µM
RXF 393 renal
  TGI: > 100 µM
U251 CNS
  TGI: > 100 µM
UACC-62 melanoma
  TGI: > 100 µM

## CC(=O)O[C@H]1C(=O)[C@@]2(C)[C@H]([C@H](OC(=O)c3ccc(F)cc3)[C@]3(O)C[C@H](OC(=O)[C@H](O)[C@@H](NC(=O)c4ccccc4)c4ccccc4)C(C)=C1C3(C)C)[C@]1(OC(C)=O)CO[C@@H]1C[C@@H]2O
HCC-2998 colon
  TGI: 0.174 µM
HOP-92 NSCLC
  TGI: > 25 µM
KM12 colon
  TGI: > 25 µM
MDA-MB-435
  TGI: 0.0049 µM
RXF 393 renal
  TGI: 0.902 µM
SF-295 CNS
  TGI: > 6.59 µM
U251 CNS
  TGI: 0.738 µM
UACC-62 melanoma
  TGI: > 25 µM

## O=C1CC(C(O)(C(F)(F)F)C(F)(F)Cl)CCC1C(O)(C(F)(F)F)C(F)(F)Cl (configuration not stated)
HCC-2998 colon
  TGI: > 10 µM
HOP-92 NSCLC
  TGI: 5.09 µM
KM12 colon
  TGI: > 10 µM
MDA-MB-435
  TGI: > 10 µM
RXF 393 renal
  TGI: > 10 µM
SF-295 CNS
  TGI: > 10 µM
SK-OV-3 ovarian
  TGI: > 10 µM
U251 CNS
  TGI: > 10 µM
UACC-62 melanoma
  TGI: > 10 µM

## Nc1ccc(-c2nc3ccccc3s2)cc1C(F)(F)F
HCC-2998 colon
  GI50: 10.6 µM
  TGI: 22.4 µM
HOP-92 NSCLC
  TGI: 33.2 µM
KM12 colon
  TGI: 31.2 µM
MDA-MB-435
  TGI: 30.2 µM
RXF 393 renal
  TGI: 21.9 µM
SF-295 CNS
  TGI: 32.1 µM
SK-OV-3 ovarian
  TGI: 30.4 µM
U251 CNS
  TGI: 28.7 µM
UACC-62 melanoma
  TGI: 30.6 µM

## O=C(NCCCN(CCCCN(CCCNC(=O)C(F)(F)F)Cc1ccc2ccccc2c1)Cc1ccc2ccccc2c1)C(F)(F)F
HCC-2998 colon
  TGI: 2.93 µM
HOP-92 NSCLC
  TGI: > 100 µM
KM12 colon
  TGI: > 100 µM
MDA-MB-435
  TGI: 3.87 µM
RXF 393 renal
  TGI: > 100 µM
SF-295 CNS
  TGI: > 100 µM
SK-OV-3 ovarian
  TGI: > 100 µM
U251 CNS
  TGI: > 100 µM
UACC-62 melanoma
  TGI: 5.41 µM

## Cc1ccc(CC[P+](=O)CCc2ccc(C)nc2)cn1
HCC-2998 colon
  TGI: > 100 µM
HOP-92 NSCLC
  TGI: > 100 µM
KM12 colon
  TGI: > 100 µM
MDA-MB-435
  TGI: > 100 µM
RXF 393 renal
  TGI: > 100 µM
SF-295 CNS
  TGI: > 100 µM
SK-OV-3 ovarian
  TGI: > 100 µM
U251 CNS
  TGI: > 100 µM
UACC-62 melanoma
  TGI: > 100 µM

## O=C(Oc1cc(=O)c(OC(=O)c2ccccc2)co1)c1ccccc1
HCC-2998 colon
  TGI: > 100 µM
HOP-92 NSCLC
  TGI: > 100 µM
KM12 colon
  TGI: > 100 µM
MDA-MB-435
  TGI: > 100 µM
RXF 393 renal
  TGI: > 100 µM
SF-295 CNS
  TGI: > 100 µM
SK-OV-3 ovarian
  TGI: > 100 µM
U251 CNS
  TGI: > 100 µM
UACC-62 melanoma
  TGI: > 100 µM

## S=C(/N=c1\sc(Nc2ccc(Cl)cc2)nc2sc3c(c12)CCN(N1CCc2c(sc4nc(Nc5ccc(Cl)cc5)s/c(=N\C(=S)Nc5ccc(Cl)cc5)c24)C1)C3)Nc1ccc(Cl)cc1
RXF 393 renal
  TGI: 36.7 µM
SF-295 CNS
  TGI: > 100 µM
SK-OV-3 ovarian
  TGI: 66.4 µM
U251 CNS
  TGI: 61.9 µM
UACC-62 melanoma
  TGI: 48 µM

## O=C(Cc1ccccc1)NN1C(=O)/C(=C\c2ccccc2)SC1=Nc1ccccc1
HCC-2998 colon
  TGI: > 100 µM
HOP-92 NSCLC
  TGI: > 100 µM
KM12 colon
  TGI: > 100 µM
MDA-MB-435
  TGI: > 100 µM
RXF 393 renal
  TGI: > 100 µM
SF-295 CNS
  TGI: > 100 µM
SK-OV-3 ovarian
  TGI: > 100 µM
U251 CNS
  TGI: > 100 µM
UACC-62 melanoma
  TGI: > 100 µM

## CC1(C)C2CC(=O)C1(C)C(O)C2Br (configuration not stated)
HCC-2998 colon
  TGI: > 100 µM
HOP-92 NSCLC
  TGI: > 100 µM
KM12 colon
  TGI: > 100 µM
MDA-MB-435
  TGI: > 100 µM
RXF 393 renal
  TGI: > 100 µM
SF-295 CNS
  TGI: > 100 µM
SK-OV-3 ovarian
  TGI: > 100 µM
U251 CNS
  TGI: > 100 µM
UACC-62 melanoma
  TGI: > 100 µM

## CC(=O)c1cccn1/C=C(\OC(=O)OC(C)(C)C)c1ccc[nH]1
HCC-2998 colon
  TGI: > 100 µM
KM12 colon
  TGI: > 100 µM
MDA-MB-435
  TGI: > 100 µM
RXF 393 renal
  TGI: > 100 µM
SF-295 CNS
  TGI: > 100 µM
U251 CNS
  TGI: > 100 µM
UACC-62 melanoma
  TGI: > 100 µM

## CC1NC(=O)[C@H](C)N(C)C(=O)[C@@H]2CCCN2C(=O)[C@@H](NC(=O)C(Cc2ccccc2)NC(=O)/C=C/C=C/C=C/C=C/C=C/C(=O)NC2=C(O)CCC2=O)COC(=O)[C@@H]2CCCN2C1=O (some centres not stated) (X26-[ξF]SP[NMeA][ξA]P; ester 2-C)
HCC-2998 colon
  TGI: > 100 µM
HOP-92 NSCLC
  TGI: > 100 µM
KM12 colon
  TGI: > 100 µM
MDA-MB-435
  TGI: > 100 µM
RXF 393 renal
  TGI: > 100 µM
SF-295 CNS
  TGI: > 100 µM
SK-OV-3 ovarian
  TGI: > 100 µM
U251 CNS
  TGI: > 100 µM
UACC-62 melanoma
  TGI: > 100 µM

## c1ccc2c(c1)c1c(n2CCOCCN2CCOCC2)CCCC1
HOP-92 NSCLC
  TGI: 71.9 µM
KM12 colon
  TGI: > 100 µM
SF-295 CNS
  TGI: 50 µM
SK-OV-3 ovarian
  TGI: > 100 µM
U251 CNS
  TGI: 64.6 µM

## CCc1c[n+]([O-])c(C)cc1[N+](=O)[O-]
HCC-2998 colon
  TGI: 40.5 µM
HOP-92 NSCLC
  TGI: > 100 µM
KM12 colon
  TGI: > 100 µM
MDA-MB-435
  TGI: > 100 µM
RXF 393 renal
  TGI: 60.9 µM
SF-295 CNS
  TGI: > 100 µM
SK-OV-3 ovarian
  TGI: > 100 µM
U251 CNS
  TGI: > 100 µM
UACC-62 melanoma
  TGI: > 100 µM

## Cc1c(N2C(=O)C(Cl)C2c2ccc(Cl)cc2)c(=O)n(-c2ccccc2)n1C (configuration not stated)
HOP-92 NSCLC
  TGI: > 100 µM
KM12 colon
  TGI: > 100 µM
MDA-MB-435
  TGI: 59.8 µM
RXF 393 renal
  TGI: > 100 µM
SF-295 CNS
  TGI: > 100 µM
SK-OV-3 ovarian
  TGI: > 100 µM
U251 CNS
  TGI: > 100 µM
UACC-62 melanoma
  TGI: > 100 µM

## CN(Cc1ccccc1)c1cc(=O)n(C)c(=O)[nH]1
HCC-2998 colon
  TGI: > 100 µM
HOP-92 NSCLC
  TGI: > 100 µM
MDA-MB-435
  TGI: > 100 µM
SF-295 CNS
  TGI: > 100 µM
SK-OV-3 ovarian
  TGI: > 100 µM
U251 CNS
  TGI: > 100 µM
UACC-62 melanoma
  TGI: > 100 µM

## C[C@]12CC[C@@H]3c4ccc(O)cc4CC[C@H]3[C@@H]1C/C(=C\c1ccncc1)[C@@H]2O
HCC-2998 colon
  TGI: 53 µM
HOP-92 NSCLC
  TGI: 32 µM
KM12 colon
  TGI: 62.2 µM
MDA-MB-435
  TGI: > 100 µM
RXF 393 renal
  TGI: 7.73 µM
SF-295 CNS
  TGI: 70.2 µM
SK-OV-3 ovarian
  TGI: > 100 µM
U251 CNS
  TGI: 39.6 µM
UACC-62 melanoma
  TGI: 25.6 µM

## CCOC(=O)c1c(-c2ccccc2)c(-c2ccccc2)cn1C
HCC-2998 colon
  TGI: > 10 µM
HOP-92 NSCLC
  TGI: > 10 µM
KM12 colon
  TGI: > 10 µM
MDA-MB-435
  TGI: > 10 µM
RXF 393 renal
  TGI: > 10 µM
SF-295 CNS
  TGI: > 10 µM
SK-OV-3 ovarian
  TGI: > 10 µM
U251 CNS
  TGI: > 10 µM
UACC-62 melanoma
  TGI: > 10 µM

## c1csc(-c2ccc(-c3cccs3)c3nsnc23)c1
HCC-2998 colon
  TGI: > 100 µM
HOP-92 NSCLC
  TGI: > 100 µM
KM12 colon
  TGI: 22.2 µM
MDA-MB-435
  TGI: > 100 µM
RXF 393 renal
  TGI: > 64.7 µM
SF-295 CNS
  TGI: > 100 µM
SK-OV-3 ovarian
  TGI: > 96.4 µM
U251 CNS
  TGI: > 87.5 µM
UACC-62 melanoma
  TGI: > 100 µM

## NNC1=N/C(=C\c2ccco2)C(Cl)=N1
HCC-2998 colon
  TGI: > 100 µM
HOP-92 NSCLC
  TGI: > 100 µM
KM12 colon
  TGI: > 100 µM
MDA-MB-435
  TGI: > 100 µM
RXF 393 renal
  TGI: > 100 µM
SF-295 CNS
  TGI: > 100 µM
SK-OV-3 ovarian
  TGI: > 100 µM
U251 CNS
  TGI: > 100 µM

## Clc1ccc(CSCCc2ccncc2)cc1Cl
HCC-2998 colon
  TGI: 34.2 µM
HOP-92 NSCLC
  TGI: 30.4 µM
KM12 colon
  TGI: 50.9 µM
MDA-MB-435
  TGI: 49.5 µM
RXF 393 renal
  TGI: 61.8 µM
SF-295 CNS
  TGI: 41.8 µM
SK-OV-3 ovarian
  TGI: 59.4 µM
U251 CNS
  TGI: 28.5 µM
UACC-62 melanoma
  TGI: 29.6 µM
